Assay results published in PubChem BioAssay AID1259407 (Chemical Carcinogenesis Research Information System (CCRIS), 2018).
The source made the active and inactive calls. The rule behind the calls is not given here.

System: CCRIS mutagenicity, Ames/micronucleus/aberration tests
Test: CCRIS mutagenicity studies
[1] = Test System: AMES SALMONELLA TYPHIMURIUM, Strain/Indicator: TA100, Metabolic Activation: NONE, Method: STANDARD PLATE
[2] = Test System: AMES SALMONELLA TYPHIMURIUM, Strain/Indicator: TA100, Metabolic Activation: RAT, LIVER, S-9, Method: STANDARD PLATE
[3] = Test System: AMES SALMONELLA TYPHIMURIUM, Strain/Indicator: TA98, Metabolic Activation: NONE, Method: STANDARD PLATE
[4] = Test System: AMES SALMONELLA TYPHIMURIUM, Strain/Indicator: TA98, Metabolic Activation: NONE, Method: PREINCUBATION

SMILES: Cc1ccc(S(=O)(=O)OC(C)C)cc1
- mutagenic call (End Point: IN VITRO MICRONUCLEUS, Test System: MOUSE LYMPHOMA L5178Y CELLS, Metabolic Activation: NONE): active; positive
- mutagenic call (End Point: IN VITRO MICRONUCLEUS, Test System: MOUSE LYMPHOMA L5178Y CELLS, Metabolic Activation: RAT, LIVER, S-9): active; positive
- mutagenic call (End Point: In vitro micronucleus, Test System: Chinese Hamster Ovary (CHO-WBL) cells, Metabolic Activation: None): active; positive (p<0.05)
- mutagenic call [1]: active; positive
- mutagenic call [2]: active; positive

SMILES: CC(/C=C(/C#N)c1ccc(F)cc1)C(c1ccccc1)C(C#N)c1ccc(F)cc1 (configuration not stated)
- mutagenic call [1]: inactive; negative

SMILES: CCc1cccc2c3c([nH]c12)C(C)(CC)OCC3 (configuration not stated)
- mutagenic call [3]: inactive; negative
- mutagenic call (Test System: AMES SALMONELLA TYPHIMURIUM, Strain/Indicator: TA98, Metabolic Activation: RAT, LIVER, S-9, Method: STANDARD PLATE): inactive; negative
- mutagenic call [1]: inactive; negative
- mutagenic call [2]: inactive; negative
- mutagenic call (Test System: AMES SALMONELLA TYPHIMURIUM, Strain/Indicator: TA1535, Metabolic Activation: NONE, Method: STANDARD PLATE): inactive; negative
- mutagenic call (Test System: AMES SALMONELLA TYPHIMURIUM, Strain/Indicator: TA1535, Metabolic Activation: RAT, LIVER, S-9, Method: STANDARD PLATE): inactive; negative
- mutagenic call (Test System: AMES SALMONELLA TYPHIMURIUM, Strain/Indicator: TA1537, Metabolic Activation: NONE, Method: STANDARD PLATE): inactive; negative
- mutagenic call (Test System: AMES SALMONELLA TYPHIMURIUM, Strain/Indicator: TA1537, Metabolic Activation: RAT, LIVER, S-9, Method: STANDARD PLATE): inactive; negative
- mutagenic call (Test System: E. COLI, Strain/Indicator: WP2 UVRA, Metabolic Activation: NONE, Method: STANDARD PLATE): inactive; negative
- mutagenic call (Test System: E. COLI, Strain/Indicator: WP2 UVRA, Metabolic Activation: RAT, LIVER, S-9, Method: STANDARD PLATE): inactive; negative

SMILES: O=C1c2ccccc2-c2ccc([N+](=O)[O-])cc21
- mutagenic call (Test System: AMES SALMONELLA TYPHIMURIUM, Strain/Indicator: TA98 (1,8-DNP6), Metabolic Activation: NONE, Method: PREINCUBATION): active; positive
- mutagenic call (Test System: AMES SALMONELLA TYPHIMURIUM, Strain/Indicator: TA98(1,8-DNP6), Metabolic Activation: NONE, Method: STANDARD PLATE): active; positive
- mutagenic call (Test System: AMES SALMONELLA TYPHIMURIUM, Strain/Indicator: TA98 (NR), Metabolic Activation: NONE, Method: PREINCUBATION): active; positive
- mutagenic call (Test System: AMES SALMONELLA TYPHIMURIUM, Strain/Indicator: TA98(NR), Metabolic Activation: NONE, Method: STANDARD PLATE): active; positive
- mutagenic call (Test System: AMES SALMONELLA TYPHIMURIUM, Strain/Indicator: TA98(NR), Metabolic Activation: RAT LIVER S-9 (10%), Method: PREINCUBATION): active; positive
- mutagenic call (Test System: AMES SALMONELLA TYPHIMURIUM, Strain/Indicator: TA98(NR), Metabolic Activation: RAT LIVER S-9, 3-METHYLCHOLANTHRENE (10%), Method: PREINCUBATION): active; positive
- mutagenic call (Test System: AMES SALMONELLA TYPHIMURIUM, Strain/Indicator: TA98(NR), Metabolic Activation: RAT LIVER S-9, BETA-NAPHTHAFLAVONE (10%), Method: PREINCUBATION): active; positive
- mutagenic call (Test System: AMES SALMONELLA TYPHIMURIUM, Strain/Indicator: TA98(NR), Metabolic Activation: RAT LIVER S-9, PCB (10%), Method: PREINCUBATION): active; positive
- mutagenic call (Test System: AMES SALMONELLA TYPHIMURIUM, Strain/Indicator: TA98(NR), Metabolic Activation: RAT LIVER S-9, PHENOBARBITAL (10%), Method: PREINCUBATION): active; positive
- mutagenic call [4]: active; positive
- mutagenic call [3]: active; positive
- mutagenic call (Test System: AMES SALMONELLA TYPHIMURIUM, Strain/Indicator: TA98, Metabolic Activation: RAT, LIVER, S-9, AROCLOR 1254, Method: STANDARD PLATE): active; positive
- mutagenic call [1]: active; positive
- mutagenic call (Test System: AMES SALMONELLA TYPHIMURIUM, Strain/Indicator: TA100, Metabolic Activation: RAT, LIVER, S-9, AROCLOR 1254, Method: STANDARD PLATE): active; positive
- mutagenic call (Test System: AMES SALMONELLA TYPHIMURIUM, Strain/Indicator: TA1538, Metabolic Activation: NONE): active; positive
- mutagenic call (Test System: AMES SALMONELLA TYPHIMURIUM, Strain/Indicator: TA7001, Metabolic Activation: NONE, Method: PREINCUBATION): inactive; negative
- mutagenic call (Test System: AMES SALMONELLA TYPHIMURIUM, Strain/Indicator: TA7002, Metabolic Activation: NONE, Method: PREINCUBATION): active; positive
- mutagenic call (Test System: AMES SALMONELLA TYPHIMURIUM, Strain/Indicator: TA7003, Metabolic Activation: NONE, Method: PREINCUBATION): inactive; negative
- mutagenic call (Test System: AMES SALMONELLA TYPHIMURIUM, Strain/Indicator: TA7004, Metabolic Activation: NONE, Method: PREINCUBATION): active; positive
- mutagenic call (Test System: AMES SALMONELLA TYPHIMURIUM, Strain/Indicator: TA7005, Metabolic Activation: NONE, Method: PREINCUBATION): active; positive
- mutagenic call (Test System: AMES SALMONELLA TYPHIMURIUM, Strain/Indicator: TA7006, Metabolic Activation: NONE, Method: PREINCUBATION): active; positive
- mutagenic call (Test System: AMES SALMONELLA TYPHIMURIUM, Strain/Indicator: YG7131, Metabolic Activation: NONE): active; positive

SMILES: N#CCBr
- mutagenic call (Test System: AMES SALMONELLA TYPHIMURIUM, Strain/Indicator: TA98, Metabolic Activation: HAMSTER, LIVER, S-9, AROCLOR 1254 (10%), Method: PREINCUBATION): inactive; negative
- mutagenic call [4]: inactive; negative
- mutagenic call (Test System: AMES SALMONELLA TYPHIMURIUM, Strain/Indicator: TA98, Metabolic Activation: RAT, LIVER, S-9, AROCLOR 1254 (10%), Method: PREINCUBATION): inactive; negative
- mutagenic call (Test System: AMES SALMONELLA TYPHIMURIUM, Strain/Indicator: TA100, Metabolic Activation: HAMSTER, LIVER, S-9, AROCLOR 1254 (10%), Method: PREINCUBATION): inactive; negative
- mutagenic call (Test System: AMES SALMONELLA TYPHIMURIUM, Strain/Indicator: TA100, Metabolic Activation: NONE, Method: FLUCTUATION TEST): inactive; negative
- mutagenic call (Test System: AMES SALMONELLA TYPHIMURIUM, Strain/Indicator: TA100, Metabolic Activation: NONE, Method: PREINCUBATION): inactive; negative
- mutagenic call (Test System: AMES SALMONELLA TYPHIMURIUM, Strain/Indicator: TA100, Metabolic Activation: RAT, LIVER, S-9, AROCLOR 1254 (10%), Method: PREINCUBATION): inactive; negative
- mutagenic call (Test System: AMES SALMONELLA TYPHIMURIUM, Strain/Indicator: TA100, Metabolic Activation: RAT, LIVER, S-9, AROCLOR 1254, Method: FLUCTUATION TEST): active; positive
- mutagenic call (Test System: AMES SALMONELLA TYPHIMURIUM, Strain/Indicator: TA1535, Metabolic Activation: HAMSTER, LIVER, S-9, AROCLOR 1254 (10%), Method: PREINCUBATION): inactive; negative
- mutagenic call (Test System: AMES SALMONELLA TYPHIMURIUM, Strain/Indicator: TA1535, Metabolic Activation: NONE, Method: PREINCUBATION): inactive; negative
- mutagenic call (Test System: AMES SALMONELLA TYPHIMURIUM, Strain/Indicator: TA1535, Metabolic Activation: RAT, LIVER, S-9, AROCLOR 1254 (10%), Method: PREINCUBATION): inactive; negative
- mutagenic call (Test System: AMES SALMONELLA TYPHIMURIUM, Strain/Indicator: TA1537, Metabolic Activation: HAMSTER, LIVER, S-9, AROCLOR 1254 (10%), Method: PREINCUBATION): inactive; negative
- mutagenic call (Test System: AMES SALMONELLA TYPHIMURIUM, Strain/Indicator: TA1537, Metabolic Activation: NONE, Method: PREINCUBATION): inactive; negative
- mutagenic call (Test System: AMES SALMONELLA TYPHIMURIUM, Strain/Indicator: TA1537, Metabolic Activation: RAT, LIVER, S-9, AROCLOR 1254 (10%), Method: PREINCUBATION): inactive; negative
